pKi: −log10 of the molar value.
Target: T1, hM2 muscarinic receptor subtype (Homo sapiens, UniProt P08172)
T1 construct: expressed in transfected cells; membranes prepared
T1 sequence (P08172 1-466): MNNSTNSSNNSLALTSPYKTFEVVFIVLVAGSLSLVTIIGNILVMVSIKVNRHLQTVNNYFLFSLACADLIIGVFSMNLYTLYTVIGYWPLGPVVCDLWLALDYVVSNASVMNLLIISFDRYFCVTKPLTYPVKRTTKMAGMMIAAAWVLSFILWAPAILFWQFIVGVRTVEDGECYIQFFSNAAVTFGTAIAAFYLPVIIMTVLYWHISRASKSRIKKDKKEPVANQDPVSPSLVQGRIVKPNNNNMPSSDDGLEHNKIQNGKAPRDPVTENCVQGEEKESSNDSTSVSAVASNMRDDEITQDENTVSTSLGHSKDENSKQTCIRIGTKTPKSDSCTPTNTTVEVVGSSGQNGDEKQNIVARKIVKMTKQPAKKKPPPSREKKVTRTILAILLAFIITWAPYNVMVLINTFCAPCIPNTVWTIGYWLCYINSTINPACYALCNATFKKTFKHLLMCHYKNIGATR
Experiment: Radioligand binding assay ([3H]NMS displacement), hM2
Details: [3H]NMS at 1 nM; membranes of CHO cells expressing hM2
Method: CHO (Chinese hamster ovary) cell lines stably expressing cloned human hM1, hM2, hM3 and hM4 muscarinic receptor subtypes, respectively, were grown to near confluency in medium consisting of HAM's F-12 supplemented with 10% FBS (Fetal Bovine Serum) and 250 μg/mL Geneticin. The cells were grown in a 5% CO2, 37° C. incubator and lifted with dPBS+2 mM EDTA. Cells were collected by 5 minute centrifugation at 650×g, and cell pellets were either stored frozen at −80° C. or membranes were prepared immediately. For membrane preparation, cell pellets were resuspended in lysis buffer and homogenized with a Polytron PT-2100 tissue disrupter (Kinematica AG; 20 seconds×2 bursts). Crude membranes were centrifuged at 40,000×g for 15 minutes at 4° C. […] Protein concentration of the membrane suspension was determined by the method of Lowry, O. et al., (1951) […]: 193, 265. […]
Radioligand binding assays were performed in 96-well microtiter plates in a total assay volume of 100 μL. […] Filter plates were rinsed three times with wash buffer (10 mM HEPES) to remove unbound radioactivity. […] The plates were then counted in a PerkinElmer Topcount liquid scintillation counter (PerkinElmer Inc., Wellesley, Mass.). Binding data were analyzed by nonlinear regression analysis with the GraphPad Prism Software package (GraphPad Software, Inc., San Diego, Calif.) using the one-site competition model. […]

pKi: > 9.00
SMILES: COc1ccncc1CN1CCC(N(CCCCCCCN2CC[C@@H](C(C(N)=O)(c3ccccc3)c3ccccc3)C2)C(C)C)CC1 [Example 1]

— patent US7285564B2, “Substituted 4-amino-1-(pyridylmethyl)piperidine and related compounds” (Theravance, Inc., priority 2002, dated 2007)
